Experiments:
Mus musculus [1] = species: Mus musculus; assay: Percentage inhibition as antitumor activity in carcinoma CF1 male mice.; format: functional; design: concentration or dose not given beside the values
[2] = Screening of Ehrlich ascites carcinoma cells in mice at 20 mg/kg/day intraperitoneally.; format: functional, Mus musculus; settings: route intraperitoneal
Mus musculus [3] = species: Mus musculus; assay: Volume of ascrit fluid collected 8 days after tumor transplantation in mice; format: functional
Mus musculus [4] = species: Mus musculus; assay: Anticarcinoma activity of Diazomethyl Ketone against Ehrlich ascites Carcinoma pharmacological screens were reported; 6/6; format: functional
Mus musculus [5] = species: Mus musculus; assay: Anticarcinoma activity of Diazomethyl Ketone against Ehrlich ascites Carcinoma pharmacological screens were reported; 5/8; format: functional
Mus musculus [6] = species: Mus musculus; assay: Volume of fluid collected 8 days after tumor transplantation in mice.; format: functional; design: unit not given beside the values
P388 [7] = assay: Survival of the mice for average number of days; expressed as average survival days; format: functional, Mus musculus
P388 [8] = assay: T/C expresses antileukemic activity measured as tested over that of control.; format: functional, Mus musculus
Mus musculus [9] = species: Mus musculus; assay: Anticarcinoma activity of Diazomethyl Ketone against Ehrlich ascites Carcinoma pharmacological screens were reported; 5/6; format: functional
Mus musculus [10] = species: Mus musculus; assay: Anticarcinoma activity of Diazomethyl Ketone against Ehrlich ascites Carcinoma pharmacological screens were reported; 8/8; format: functional
P388 [11] = assay: T/C expresses antileukemic activity measured as tested over that of control; T/C >/= 120 for significant activity; format: functional, Mus musculus
Mus musculus [12] = species: Mus musculus; assay: Anticarcinoma activity of Diazomethyl Ketone against Ehrlich ascites Carcinoma pharmacological screens were reported; 7/8; format: functional
P388 [13] = assay: T/C expresses antileukemic activity measured as tested over that of control; format: functional, Mus musculus
Mus musculus [14] = species: Mus musculus; assay: Anticarcinoma activity of Diazomethyl Ketone against Ehrlich ascites Carcinoma pharmacological screens were reported; 12/12; format: functional
Mus musculus [15] = assay: Screening of Ehrlich ascites carcinoma cells in mice at 20 mg/kg/day, intraperitoneally; format: functional; settings: route intraperitoneal

| SMILES | Inhibition (Mus musculus [1]) | ascrit [2] | Survival after 10 days (Mus musculus [4]) | Volume of ascrit fluid (Mus musculus [6]) | Survival (P388 [7]) | T/C (P388 [8]) | Survival after 10 days (Mus musculus [9]) | further results |
| --- | --- | --- | --- | --- | --- | --- | --- | --- |
| Cc1ccc(S(=O)(=O)NC(C(=O)CCl)C(C)C)cc1 (stereo unspecified) | 91.4% | 46.9 | 6 |  |  |  |  | Volume of ascrit fluid (Mus musculus [3]): 0.63 |
| CCC(C)C(NS(=O)(=O)c1ccc(C)cc1)C(=O)CCl (stereo unspecified) | 86.6% | 34.5 |  | 1.34 | 10.5 days | 109 |  | Survival after 10 days (Mus musculus [5]): 5 |
| Cc1ccc(S(=O)(=O)NC(C)C(=O)C=[N+]=[N-])cc1 (stereo unspecified) | 87.1% |  |  | 1.02 | 11.6 days | 120 | 5 |  |
| Cc1ccc(S(=O)(=O)NC(C)C(=O)CCl)cc1 (stereo unspecified) | 78.4% | 46.5 |  | 1.6 |  |  |  | Survival after 10 days (Mus musculus [10]): 8 |
| C=COC(=O)C(Cc1ccccc1)NS(=O)(=O)c1ccc(C)cc1 (stereo unspecified) | 56.8% | 19.2 |  | 7.74 |  |  | 5 |  |
| N#CCOC(=O)C(Cc1ccc(O)cc1)NC(=O)OCc1ccccc1 (stereo unspecified) | 38% | 19.7 | 6 | 10.82 |  |  |  |  |
| Cc1ccc(S(=O)(=O)N2CCC[C@H]2C(=O)C=[N+]=[N-])cc1 | 92.7% | 39.8 | 6 | 0.63 |  |  |  |  |
| Cc1ccc(S(=O)(=O)NCC(=O)CCl)cc1 | 99.9% | 0.01 |  | 0.04 | 13.2 days |  | 5 | T/C (P388 [11]): 137 |
| Cc1ccc(S(=O)(=O)NCCCCCC(=O)CCl)cc1 | 99.9% | 0.01 |  | 0.02 | 11.2 days | 116 | 5 |  |
| Cc1ccc(S(=O)(=O)NC(CC(C)C)C(=O)C=[N+]=[N-])cc1 (stereo unspecified) | 92.2% | 42.5 | 6 | 0.63 | 12.1 days |  |  | T/C (P388 [11]): 125 |
| Cc1ccc(S(=O)(=O)N2C(=O)CCC2C(=O)CCl)cc1 (stereo unspecified) | 91.4% | 31 |  | 0.95 | 12.8 days |  |  | T/C (P388 [11]): 133; Survival after 10 days (Mus musculus [12]): 7 |
| C=COC(=O)C(Cc1ccc(O)cc1)NS(=O)(=O)c1ccc(C)cc1 (stereo unspecified) | 75% | 17.5 | 6 | 4.92 |  |  |  |  |
| CCC(C)C(NS(=O)(=O)c1ccc(C)cc1)C(=O)C=[N+]=[N-] (stereo unspecified) | 74.7% | 45.4 |  | 1.92 | 12.1 days |  | 5 | T/C (P388 [11]): 126 |
| Cc1ccc(S(=O)(=O)NCCC(=O)C=[N+]=[N-])cc1 | 78.8% | 44 | 6 | 1.66 | 11.5 days | 119 |  |  |
| Cc1ccc(S(=O)(=O)N2C(=O)CCC2C(=O)C=[N+]=N)cc1 (stereo unspecified) | 94.4% | 32 | 6 | 0.6 |  |  |  |  |
| Cc1ccc(S(=O)(=O)NC(CC(C)C)C(=O)CCl)cc1 (stereo unspecified) | 80.4% | 25.5 |  | 2.65 | 10.3 days | 107 |  | Survival after 10 days (Mus musculus [10]): 8 |
| Cc1ccc(S(=O)(=O)NCC(=O)C=[N+]=[N-])cc1 | 99.5% | 56 | 6 | 0.03 |  |  |  |  |
| Cc1ccc(S(=O)(=O)N2CCCC2C(=O)CCl)cc1 (stereo unspecified) | 76.5% | 30 |  | 2.7 | 10.2 days | 106 |  | Survival after 10 days (Mus musculus [5]): 5 |
| Cc1ccc(S(=O)(=O)NCCCCCC(=O)C=[N+]=[N-])cc1 | 93.8% | 42.5 |  | 0.5 | 11.8 days | 122 | 5 |  |
| Cc1ccc(S(=O)(=O)NC(Cc2ccc(O)cc2)C(=O)OCC#N)cc1 (stereo unspecified) | 56% | 15.8 |  | 9.36 |  |  | 5 |  |
| Cc1ccc(S(=O)(=O)NC(C(=O)C=[N+]=[N-])C(C)C)cc1 (stereo unspecified) | 85.5% | 52.7 | 6 | 0.93 |  |  |  |  |
| Cc1ccc(S(=O)(=O)NCCC(=O)CCl)cc1 | 99.9% | 0.1 |  | 0.02 | 9.8 days | 101 | 5 |  |
| Cc1ccc(S(=O)(=O)N[C@H](C)C(=O)CCl)cc1 | 98.6% | 18.9 |  | 0.25 | 11 days | 114 | 5 |  |
| O=c1[nH]cc(F)c(=O)[nH]1 [FLUOROURACIL] | 0% | 32.4 |  | 0.98 | 9.66 days |  |  | T/C (P388 [13]): 100; Survival after 10 days (Mus musculus [14]): 12 |
| N[C@@H](Cc1ccc(N(CCCl)CCCl)cc1)C(=O)O [MELPHALAN] | 99.9% | 0.1 | 6 | 3 |  |  |  |  |
| Sc1ncnc2nc[nH]c12 [MERCAPTOPURINE ANHYDROUS] | 99.9% |  | 6 | 0.3 |  |  |  | ascrit (Mus musculus [15]): 0.7 |
